Assay results as given in patent US9127001B2, “Substituted 4,5,6,7-tetrahydro-1H-pyrazolo[4,3-c]pyridines, their use as medicament, and pharmaceutical preparations comprising them” (Sanofi, priority 2011, dated 2015).

Each molecule was assayed against Human TASK-1 channels (Homo sapiens (Human), UniProt O14649) (assay: Activity on the TASK-1 channel in Xenopus oocytes (two-microelectrode voltage clamp)). Conditions: not given.
Assay type: cell-based
Protocol: Human TASK-1 channels were expressed in Xenopus oocytes. For this purpose, oocytes were isolated from Xenopus laevis and defoliculated. Subsequently, TASK-1-encoding RNA synthesized in vitro was injected into oocytes. […] Data were acquired and analyzed using a TEC-10cx amplifier (NPI Electronic, Tamm, Germany) connected to an ITC-16 interface (Instrutech Corp., Long Island, USA) and Pulse software (HEKA Elektronik, Lambrecht, Germany). […] Oocytes were continuously superfused with ND96 buffer containing: NaCl 96 mM, KCl 2 mM, CaCl2 1.8 mM, MgCl2 1 mM, HEPES 5 mM (pH adjusted to 7.4 with NaOH). All experiments were performed at room temperature.
Test substances were consecutively added to the bath solution at rising concentrations. […] IC50 values were obtained by fitting the data to the general dose-response equation.

Chain of Human TASK-1 channels (O14649 whole entry): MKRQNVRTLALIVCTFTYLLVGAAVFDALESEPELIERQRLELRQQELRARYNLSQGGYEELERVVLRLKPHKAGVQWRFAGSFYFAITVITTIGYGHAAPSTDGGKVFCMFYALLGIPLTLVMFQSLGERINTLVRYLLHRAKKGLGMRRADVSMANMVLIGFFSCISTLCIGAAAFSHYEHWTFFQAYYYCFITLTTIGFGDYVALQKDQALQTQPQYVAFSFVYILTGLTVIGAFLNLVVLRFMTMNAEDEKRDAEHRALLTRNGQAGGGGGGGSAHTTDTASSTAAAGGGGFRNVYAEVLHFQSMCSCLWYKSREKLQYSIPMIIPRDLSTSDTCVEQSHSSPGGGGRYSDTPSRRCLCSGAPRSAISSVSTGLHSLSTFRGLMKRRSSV

inhibition at 5 µM [%]	SMILES
70	COc1ccccc1Cn1nc(-c2cccc(C(F)(F)F)c2)c2c1CCN(C(C)=O)C2 [Example 6bc, 1-[1-(2-Methoxy-benzyl)-3-(3-trifluoromethyl-phenyl)-1,4,6,7-tetrahydro-pyrazolo[4,3-c]pyridin-5-yl]-ethanone]
81	CC(=O)N1CCc2c(c(-c3cccc(C(F)(F)F)c3)nn2Cc2ccc(C)cc2F)C1 [Example 6bn, 1-[1-(2-Fluoro-4-methyl-benzyl)-3-(3-trifluoromethyl-phenyl)-1,4,6,7-tetrahydro-pyrazolo[4,3-c]pyridin-5-yl]-ethanone]
78	CC(=O)N1CCc2c(c(-c3ccnc(Br)c3)nn2Cc2ccc(F)cc2F)C1 [Example 6k, 1-[3-(2-Bromo-pyridin-4-yl)-1-(2,4-difluoro-benzyl)-1,4,6,7-tetrahydro-pyrazolo[4,3-c]pyridin-5-yl]-ethanone]
88	CC(=O)N1CCc2c(c(-c3cccc(C)c3)nn2Cc2ccc(Cl)nc2)C1 [Example 6p, 1-[1-(6-Chloro-pyridin-3-ylmethyl)-3-m-tolyl-1,4,6,7-tetrahydro-pyrazolo[4,3-c]pyridin-5-yl]-ethanone]
70	COc1ccnc(Cn2nc(-c3cccc(C(F)(F)F)c3)c3c2CCN(C(C)=O)C3)c1 [Example 6q, 1-[1-(4-Methoxy-pyridin-2-ylmethyl)-3-(3-trifluoromethyl-phenyl)-1,4,6,7-tetrahydro-pyrazolo[4,3-c]pyridin-5-yl]-ethanone]
79	CC(=O)N1CCc2c(c(-c3cccc(C)c3)nn2Cc2cnccc2Cl)C1 [Example 6r, 1-[1-(4-Chloro-pyridin-3-ylmethyl)-3-m-tolyl-1,4,6,7-tetrahydro-pyrazolo[4,3-c]pyridin-5-yl]-ethanone]
83	COc1cccnc1Cn1nc(-c2cccc(C(F)(F)F)c2)c2c1CCN(C(C)=O)C2 [Example 6s, 1-[1-(3-Methoxy-pyridin-2-ylmethyl)-3-(3-trifluoromethyl-phenyl)-1,4,6,7-tetrahydro-pyrazolo[4,3-c]pyridin-5-yl]-ethanone]
62	CC(=O)N1CCc2c(c(-c3cccc(Cl)c3)nn2Cc2ncccc2C)C1 [Example 6t, 1-[3-(3-Chloro-phenyl)-1-(3-methyl-pyridin-2-ylmethyl)-1,4,6,7-tetrahydro-pyrazolo[4,3-c]pyridin-5-yl]-ethanone]
89	CC(=O)N1CCc2c(c(-c3cccc(C(F)(F)F)n3)nn2C(C)c2ccc(F)cc2)C1 (centres unmarked) [Example 6u, 1-[1-[1-(4-Fluoro-phenyl)-ethyl]-3-(6-trifluoromethyl-pyridin-2-yl)-1,4,6,7-tetrahydro-pyrazolo[4,3-c]pyridin-5-yl]-ethanone]
73	CC(=O)N1CCc2c(c(-c3cccc(C)n3)nn2Cc2ccc(F)cc2F)C1 [Example 6v, 1-[1-(2,4-Difluoro-benzyl)-3-(6-methyl-pyridin-2-yl)-1,4,6,7-tetrahydro-pyrazolo[4,3-c]pyridin-5-yl]-ethanone]
82	CC(=O)N1CCc2c(c(-c3cc(C)ccn3)nn2Cc2ccc(F)cc2F)C1 [Example 6x, 1-[1-(2,4-Difluoro-benzyl)-3-(4-methyl-pyridin-2-yl)-1,4,6,7-tetrahydro-pyrazolo[4,3-c]pyridin-5-yl]-ethanone]
86	COc1cccc(-c2nn(Cc3ccc(F)cc3F)c3c2CN(C(C)=O)CC3)n1 [Example 6y, 1-[1-(2,4-Difluoro-benzyl)-3-(6-methoxy-pyridin-2-yl)-1,4,6,7-tetrahydro-pyrazolo[4,3-c]pyridin-5-yl]-ethanone]
75	COc1ccc(-c2nn(Cc3ccc(F)cc3F)c3c2CN(C(C)=O)CC3)nc1Cl [Example 6z, 1-[3-(6-Chloro-5-methoxy-pyridin-2-yl)-1-(2,4-difluoro-benzyl)-1,4,6,7-tetrahydro-pyrazolo[4,3-c]pyridin-5-yl]-ethanone]

Same assay, conditions: human TASK-1 expressed in Xenopus oocytes, currents during pulses to 40 mV, room temperature

IC50 [nM]	SMILES
< 10000	COc1cccc(Cn2nc(-c3cccc(Cl)c3)c3c2CCN(C(C)=O)C3)c1 [Example 6bd, 1-[3-(3-Chloro-phenyl)-1-(3-methoxy-benzyl)-1,4,6,7-tetrahydro-pyrazolo[4,3-c]pyridin-5-yl]-ethanone]
398	CC(=O)N1CCc2c(c(-c3ccc(F)cc3)nn2Cc2ccc(Cl)c(F)c2)C1 [Example 6bg, 1-[1-(4-Chloro-3-fluoro-benzyl)-3-(4-fluoro-phenyl)-1,4,6,7-tetrahydro-pyrazolo[4,3-c]pyridin-5-yl]-ethanone]
< 10000	COc1ccc(F)c(-c2nn(Cc3ccc(F)cc3F)c3c2CN(C(C)=O)CC3)c1 [Example 6bh, 1-[1-(2,4-Difluoro-benzyl)-3-(2-fluoro-5-methoxy-phenyl)-1,4,6,7-tetrahydro-pyrazolo[4,3-c]pyridin-5-yl]-ethanone]
1640	CC(=O)N1CCc2c(c(-c3ccc(F)c(C#N)c3)nn2Cc2ccc(F)cc2F)C1 [Example 6bi, 5-[5-Acetyl-1-(2,4-difluoro-benzyl)-4,5,6,7-tetrahydro-1H-pyrazolo[4,3-c]pyridin-3-yl]-2-fluoro-benzonitrile]
1160	CC(=O)N1CCc2c(c(-c3cccc(F)c3)nn2Cc2ccc(F)cc2F)C1 [Example 6bj, 1-[1-(2,4-Difluoro-benzyl)-3-(3-fluoro-phenyl)-1,4,6,7-tetrahydro-pyrazolo[4,3-c]pyridin-5-yl]-ethanone]
1150	CC(=O)N1CCc2c(c(-c3ccc(C(F)(F)F)cc3)nn2Cc2ccc(F)cc2F)C1 [Example 6bk, 1-[1-(2,4-Difluoro-benzyl)-3-(4-trifluoromethyl-phenyl)-1,4,6,7-tetrahydro-pyrazolo[4,3-c]pyridin-5-yl]-ethanone]
215	CC(=O)N1CCc2c(c(-c3cccc(C(F)(F)F)c3)nn2Cc2cnccc2Cl)C1 [Example 6c, 1-[1-(4-Chloro-pyridin-3-ylmethyl)-3-(3-trifluoromethyl-phenyl)-1,4,6,7-tetrahydro-pyrazolo[4,3-c]pyridin-5-yl]-ethanone]
422	CC(=O)N1CCc2c(c(-c3cccc(C(F)(F)F)c3)nn2Cc2ncccc2C)C1 [Example 6d, 1-[1-(3-Methyl-pyridin-2-ylmethyl)-3-(3-trifluoromethyl-phenyl)-1,4,6,7-tetrahydro-pyrazolo[4,3-c]pyridin-5-yl]-ethanone]
598	CC(=O)N1CCc2c(c(-c3ccc(F)cc3)nn2Cc2ccc(F)cc2F)C1 [Example 6f, 1-[1-(2,4-Difluoro-benzyl)-3-(4-fluoro-phenyl)-1,4,6,7-tetrahydro-pyrazolo[4,3-c]pyridin-5-yl]-ethanone]
99.5	CC(=O)N1CCc2c(c(-c3cccc(C(F)(F)F)n3)nn2Cc2ccc(F)cc2)C1 [Example 6g, 1-[1-(4-Fluoro-benzyl)-3-(6-trifluoromethyl-pyridin-2-yl)-1,4,6,7-tetrahydro-pyrazolo[4,3-c]pyridin-5-yl]-ethanone]
190	CC(=O)N1CCc2c(c(-c3cc(C(F)(F)F)ccn3)nn2Cc2ccc(F)cc2F)C1 [Example 6h, 1-[1-(2,4-Difluoro-benzyl)-3-(4-trifluoromethyl-pyridin-2-yl)-1,4,6,7-tetrahydro-pyrazolo[4,3-c]pyridin-5-yl]-ethanone]
216	CC(=O)N1CCc2c(c(-c3cccc(C(F)(F)F)n3)nn2Cc2ccc(F)cc2F)C1 [Example 6i, 1-[1-(2,4-Difluoro-benzyl)-3-(6-trifluoromethyl-pyridin-2-yl)-1,4,6,7-tetrahydro-pyrazolo[4,3-c]pyridin-5-yl]-ethanone]
< 10000	CC(=O)N1CCc2c(c(-c3cc(Br)ccn3)nn2Cc2ccc(F)cc2F)C1 [Example 6j, 1-[3-(4-Bromo-pyridin-2-yl)-1-(2,4-difluoro-benzyl)-1,4,6,7-tetrahydro-pyrazolo[4,3-c]pyridin-5-yl]-ethanone]
2440	CC(=O)N1CCc2c(c(-c3cncc(Br)c3)nn2Cc2ccc(F)cc2F)C1 [Example 6m, 1-[3-(5-Bromo-pyridin-3-yl)-1-(2,4-difluoro-benzyl)-1,4,6,7-tetrahydro-pyrazolo[4,3-c]pyridin-5-yl]-ethanone]
< 10000	CC(=O)N1CCc2c(c(-c3cccc(Br)n3)nn2Cc2ccc(F)cc2F)C1 [Example 6w, 1-[3-(6-Bromo-pyridin-2-yl)-1-(2,4-difluoro-benzyl)-1,4,6,7-tetrahydro-pyrazolo[4,3-c]pyridin-5-yl]-ethanone]
276	CC1(C(=O)N2CCc3c(c(-c4cccc(C#N)c4)nn3Cc3ccc(F)cc3F)C2)COC1 [Example 8a, 3-[1-(2,4-Difluoro-benzyl)-5-(3-methyl-oxetane-3-carbonyl)-4,5,6,7-tetrahydro-1H-pyrazolo[4,3-c]pyridin-3-yl]-benzonitrile]
19	CC(C)C(=O)N1CCc2c(c(-c3cccc(C#N)c3)nn2Cc2ccc(F)cc2F)C1 [Example 8b, 3-[1-(2,4-Difluoro-benzyl)-5-isobutyryl-4,5,6,7-tetrahydro-1H-pyrazolo[4,3-c]pyridin-3-yl]-benzonitrile]

SMILES	IC50 [nM]
CC(=O)N1C2CCC1c1c(-c3cccc(C#N)c3)nn(Cc3ccc(F)cc3F)c1C2 (centres unmarked) [Example 6n, 3-[11-Acetyl-5-(2,4-difluoro-benzyl)-4,5,11-triaza-tricyclo[6.2.1.02,6]undeca-2(6),3-dien-3-yl]-benzonitrile]	91
CC(=O)N1C2CCC1c1c(-c3ccc(F)cc3)nn(Cc3ccc(F)cc3F)c1C2 (centres unmarked) [Example 6o, 1-[5-(2,4-Difluoro-benzyl)-3-(4-fluoro-phenyl)-4,5,11-triaza-tricyclo [6.2.1.02,6]undeca-2(6),3-dien-11-yl]-ethanone]	< 10000
